Results reported in patent US11414379B2, “SPAK kinase inhibitors as neuroprotective agents” (United States Government as represented by the Department …, priority 2018, dated 2022).

Legend:
[1] = test system: KCC2 pThr906; experiment: Phosphorylation immunoblot in KCC2-transfected HEK293 cells; assay type: cell-based, human; design: key: “—” showed no inhibition of phosphorylation of SPAK/NKCC1/KC22; details: concentration inhibiting phosphorylation; for KCC2 pThr906 (μM) hypo: hypotonic low Cl- conditions; for KCC2 pThr906 (μM) Iso: isotonic conditions
Description: (§1) HEK293 (human embryonic kidney 293) cells were cultured on 10-cm-diameter dishes in DMEM supplemented with 10% (v/v) foetal bovine serum, 2 mM L-glutamine, 100 U/ml penicillin and 0.1 mg/ml streptomycin. HEK293 cells were transfected with a mixture of 20 μl of 1 mg/ml polyethylenimine (Polysciences) and 5-10 μg of plasmid DNA as described previously (Durocher et al., 2002). 36 hours post-transfection cells were stimulated with either control isotonic or hypotonic medium for a period of 30 minutes. Cells were lysed in 0.3 mL of ice-cold lysis buffer/dish, lysates were clarified by centrifugation at 4° C. for 15 minutes at 26,000 g and the supernatant aliquots were frozen in liquid nitrogen and stored at −20° C. Protein concentrations were determined using the Bradford method. Cells were treated with the indicated concentrations of the SPAK/OSR1 inhibitors. […] Hypotonic low chloride buffer was 67.5 mM sodium-gluconate, 2.5 mM potassium-gluconate, 0.25 mM CaCl2), 0.25 mM MgCl2, 0.5 mM Na2HPO4, 0.5 mM Na2SO4 and 7.5 mM HEPES (pH 7.5).
(§2) The membranes were incubated for 30 min with TBST (Tris-buffered saline, 0.05% Tween-20) containing 5% (w/v) skim milk. The blots were then washed six times with TBST and incubated for 1 hour at room temperature with secondary HRP-conjugated antibodies diluted 5000-fold in 5% (w/v) skim milk in TBST. After repeating the washing steps, signals were detected with enhanced chemiluminescence reagent. Immunoblots were developed using a film automatic processor (SRX-101; Konica Minolta Medical) and films were scanned at 600 dpi (PowerLook 1000; UMAX). Figures were generated using Photoshop/Illustrator (Adobe). The densities of bands were measured with ImageJ. For phospho-antibody immunoprecipitation, KCC isoforms were immunoprecipitated from indicated cell extracts. 2 mg of the indicated clarified cell extract were mixed with 15 μg of the indicated phospho-specific KCC antibody conjugated to 15 μl of protein-G-Sepharose, in the added presence of […] of the dephosphorylated form of the phosphopeptide antigen, and incubated 2 hours at 4° C. with gentle shaking. Immunoprecipitates were washed three times with 1 mL of lysis buffer containing 0.15 M NaCl and twice with 1 ml of buffer A. Bound proteins were eluted with 1×LDS sample buffer.
(§3) HEK293 cells were transfected with a DNA construct encoding wild type N-terminally FLAG-tagged KCC2. 36 hrs post-transfection, cells were exposed 30 min to either control isotonic or hypotonic low [C1^−] conditions, then treated in the same conditions for an additional 30 min with the indicated inhibitors at the concentrations noted. Cell lysates were subjected to SDS-PAGE and Western blotting with the indicated antibodies. See FIG. 3 for Western blot quantitation.
(§4) Referring to FIG. 2, concentration-response experiments testing effects of Closantel analogs on phosphorylation of KCC2 Thr906/Thr1007 are shown. HEK293 cells were transfected with DNA construct encoding wild type N-terminally FLAG-tagged KCC2. 36 h post-transfection, cells were exposed 30 min to either control isotonic conditions or hypotonic low Cl^− conditions, then treated in the same conditions with the specified inhibitors (1b, 1c, 1f, 1d, 1h, and 1g, respectively) at the indicated concentrations for an additional 30 min. Lysates were subjected to SDS-PAGE and Western blotting with the indicated antibodies.
(§5) Referring to FIG. 3, HEK293 cells were transfected with the DNA construct encoding wild type N-terminally FLAG-tagged KCC2. 36 h post-transfection, cells were exposed 30 min to either control isotonic or hypotonic low Cl^− conditions, then treated in the same conditions with the specified inhibitors at the indicated concen-trations for an additional 30 min. Lysates were subjected to SDS-PAGE and Western blotting with the indicated antibodies. Closantel, STOCK1S-14279 and STOCK1S-50699 were used as reference compounds.

[2] = test system: SPAK pSer373; experiment: as above; assay type: cell-based, human; design: key: “—” showed no inhibition of phosphorylation of SPAK/NKCC1/KC22; details: concentration inhibiting phosphorylation; for SPAK pSer373 (μM) hypo: hypotonic low Cl- conditions; for SPAK pSer373 (μM) Iso: isotonic conditions
Description: as §1, §2, §3, §4, §5

[3] = test system: KCC2 pThr1007; experiment: as above; assay type: cell-based, human; design: key: “—” showed no inhibition of phosphorylation of SPAK/NKCC1/KC22; details: concentration inhibiting phosphorylation; for KCC2 pThr1007 (μM) hypo: hypotonic low Cl- conditions; for KCC2 pThr1007 (μM) Iso: isotonic conditions
Description: as §1, §2, §3, §4, §5

[4] = test system: NKCC1 pThr203; experiment: as above; assay type: cell-based, human; design: key to NKCC1 pThr203 (μM) Iso / NKCC1 pThr203 (μM) hypo: “—” showed no inhibition of phosphorylation of SPAK/NKCC1/KC22; details: concentration inhibiting phosphorylation; for NKCC1 pThr203 (μM) hypo: hypotonic low Cl- conditions; for NKCC1 pThr203 (μM) Iso: isotonic conditions
Description: as §1, §2, §3, §4, §5

[5] = target: T1, GST-[T233E]SPAK kinase (Homo sapiens, UniProt Q9UEW8, T231E); experiment: SPAK kinase assay employing CATCHtide; assay type: biochemical; details: SPAK activity at different ATP concentrations
T1 construct: made in house; host or cells: E. coli
Description: SPAK kinase assays employing CATCHtide (cation chloride co-transporter peptide substrate). Peptide kinase assays, performed in triplicate, were set up in a total volume of 50 μl containing 0.5 μg GST-[T233E]SPAK kinase (˜5 nM at ˜10% purity) in 50 mM Tris/HCl, pH 7.5, 0.1 mM EGTA, 10 mM MgCl2, 300 μM CATCHtide ([…]; SEQ ID NO:1), […] [γ-32P]ATP (˜500 cpm/pmol) and the indicated concentrations of inhibitor dissolved in DMSO. After incubation for 30 min at 30° C., reactions were terminated by spotting 40 μl of the reaction mix onto P81 phosphocellulose paper and immersion in 50 mM phosphoric acid. The papers were washed extensively and the incorporation of [γ-^32P]ATP into CATCHtide was quantified by Cerenkov counting. IC^50 values were calculated with GraphPad Prism using non-linear regression analysis.
Referring to FIG. 7A, the activation of SPAK kinase by MO25α is shown. SPAK was assayed in the absence or presence of five-fold molar excess of wild-type MO25α.
Referring to FIG. 7B, kinetic data was determined for ZT-1a in the absence or presence of five-fold molar excess of wild-type MO25α. Data points are the average of three determinations, and the error bars are +/−SEM.

Structure (SMILES)	KCC2 pThr906 (μM) hypo [1]	KCC2 pThr906 (μM) Iso [1]	SPAK pSer373 (μM) hypo [2]	SPAK pSer373 (μM) Iso [2]	KCC2 pThr1007 (μM) hypo [3]	KCC2 pThr1007 (μM) Iso [3]	NKCC1 pThr203 (μM) hypo [4]	NKCC1 pThr203 (μM) Iso [4]	change of IC50 values with increasing ATP concentrations [5]
Cc1cc(C(C#N)c2ccc(Cl)cc2)c(Cl)cc1NC(=O)c1cccc(O)c1O (stereo not shown) [Compound 1i, N-(5-chloro-4-((4-chlorophenyl)(cyano)methyl)-2-methylphenyl)-2,3-dihydroxy-benzamide]	—	—	—	—	—	—	—	—	
COc1ccc(Cl)cc1C(=O)Nc1cc(Cl)c(C(C#N)c2ccc(Cl)cc2)cc1C (stereo not shown) [Compound 1j]	—	—	—	—	—	—	—	—	
Cc1cc(C(C#N)c2ccc(Cl)cc2)c(Cl)cc1NC(=O)c1ccccc1[N+](=O)[O-] (stereo not shown) [Compound 1e, N-(5-chloro-4-((4-chlorophenyl)(cyano)methyl)-2-methylphenyl)-2-nitrobenzamide]	—	—	—	—	—	—	—	—	
Cc1cc(C(C#N)c2ccc(Cl)cc2)c(Cl)cc1NC(=O)c1cc(F)ccc1O (stereo not shown) [Compound 1g]	10, 10 μM	10, 10 μM	3, 3 μM	3, 3 μM	3, 3 μM	3, 3 μM	3 μM	1 μM	
Cc1cc(C(C#N)c2ccc(Cl)cc2)c(Cl)cc1NC(=O)c1cccc(F)c1O (stereo not shown) [Compound 1h, N-(5-chloro-4-((4-chlorophenyl)(cyano)methyl)-2-methylphenyl)-3-fluoro-2-hydroxy-benzamide]	10, 10 μM	10, 10 μM	3, 3 μM	3, 3 μM	3, 3 μM	3, 3 μM	3 μM	1 μM	
Cc1cc(C(C#N)c2ccc(Cl)cc2)c(Cl)cc1NC(=O)c1ccccc1S (stereo not shown) [Compound 1c, N-(5-chloro-4-((4-chlorophenyl)(cyano)methyl)-2-methylphenyl)-2-mercapto-benzamide]	10, 10 μM	10, 10 μM	3, 3 μM	3, 3 μM	3, 3 μM	3, 3 μM	3 μM	1 μM	
Cc1cc(C(C#N)c2ccc(Cl)cc2)c(Cl)cc1NC(=O)c1cc(Cl)cc(Cl)c1O (stereo not shown) [Compound 1f, 3,5-dichloro-n-(5-chloro-4-((4-chlorophenyl)(cyano)methyl)-2-methylphenyl)-2-hydroxy-benzamide]	10, 10 μM	10, 10 μM	3, 3 μM	3, 3 μM	3, 3 μM	3, 3 μM	3 μM	1 μM	
Cc1cc(C(C#N)c2ccc(Cl)cc2)c(Cl)cc1NC(=O)c1ccccc1O (stereo not shown) [Compound 1b, N-(5-chloro-4-((4-chlorophenyl)(cyano)methyl)-2-methylphenyl)-2-hydroxy-benzamide]	10, 10 μM	10, 10 μM	3, 3 μM	3, 3 μM	3, 3 μM	3, 3 μM	1 μM	3 μM	
CN[C@@H]1C[C@H]2O[C@@](C)([C@@H]1OC)n1c3ccccc3c3c4c(c5c6ccccc6n2c5c31)C(=O)NC4 [staurosporine, reference compound]									increased in a dose-proportional manner
Cc1cc(C(C#N)c2ccc(Cl)cc2)c(Cl)cc1NC(=O)c1ccccc1N (stereo not shown) [Compound 1d, 2-amino-n-(5-chloro-4-((4-chlorophenyl)(cyano)methyl)-2-methylphenyl)-benzamide]	10, 10 μM	10, 10 μM	3, 3 μM	3, 3 μM	3, 3 μM	3, 3 μM	3 μM	1 μM	
